In PMC11029812, “Liver-targeted polymeric prodrugs delivered subcutaneously improve tafenoquine therapeutic window for malaria radical cure” (Science Advances, 2024):
Read-outs that look alike come from different tables or passages of the source.

Legend:
[1] = Tissue pharmacokinetics of released TQ and its metabolites in liver, plasma and urine (LC-MS/MS); type: in vivo, BALB/c mice
[2] = parameters: method as in PMID 28749773; details: G6PD-deficient cohort, cited from earlier work
[3] = Hemotoxicity in humanized G6PD deficiency mouse model; type: in vivo, human RBCs engrafted in NOD/SCID mice; details: female, NOD/SCID (NOD.CB17-Prkdcscid/J), mouse, in vivo; curve fit of Fig. 4B; single dose; pSVCTQ SC, TQ oral; day 7; read-out: Dose resulting in 50% hemolysis (TD50)
Experimental: (§1) Following procedures as previously published ([46]), hemotoxicity studies using huRBC engraftments were conducted in mice.
(§2) Female (8 to 9 weeks) NOD.CB17-Prkdcscid/J [nonobese diabetic severe combined immunodeficient (NOD/SCID)] mice were purchased from The Jackson Laboratory (Bar Harbor, ME). The animals were housed in a cage maintained in a specific pathogen–free animal facility and were acclimated for 1 week in the facility before initiation of experimental procedures. Sterile food and water were provided ad libitum throughout the study as previously described ([64]). All animal studies were performed under IACUC-approved protocols and adhere to the principles stated in the Guide for the Care and Use of Laboratory Animals ([100]).
(§3) Polymer solutions for SC administration were prepared in DPBS at the final dosing concentrations. All drug concentrations were calculated per the free base molecular weights of TQ. The TQ parent compound was administered intragastrically via an intragastric feeder tube. Polymers and vehicle were administered SC in the right flank. TQ, pSVCTQ, and vehicle were given as a single dose on day 0. In this model, the TQ dose studied was 10 mg/kg; pSVCTQ was tested at doses of 2.5, 5.0, or 10 mg/kg TQ equivalent.
(§4) The percentage of huRBCs at the end of this period was analyzed by flow cytometry to evaluate glycophorin A (huRBCs) and Ter119 (mouse RBCs) circulating in peripheral blood. […] The G6PD-deficient huRBC NOD/SCID mice were dosed with pSVCTQ or parent drug prepared as described above, with three to four mice per group. On days 4 and 7 following dosing, huRBC levels were assessed again by flow cytometry (glycophorin^+Ter119^−), along with the percentage of murine reticulocytes (CD71^+Ter119) as an additional marker of hemolytic toxicity. Mice were euthanized on day 7 following initiation of treatment.
(§5) Microsoft Excel and GraphPad Prism were used throughout the PK analysis to process the data, calculate pharmacokinetic parameters, and yield statistical information. A linear regression model was produced using the least squares fitting method with 1/x^2 scaling for the assay calibrators. […] For the G6PD deficiency model, data analysis was performed using GraphPad Prism (GraphPad Software). […] An F test comparing the two dose-response curves was also run. For all other work, a combination of Microsoft Excel and GraphPad Prism was used.

G6PD-deficient huRBCs = assay: as above; type: in vivo, human RBCs engrafted in NOD/SCID mice; details: single dose day 0; pSVCTQ SC, TQ oral; A− G6PD-deficient donor
Experimental: as §1, §2, §3, §4, §5

P. berghei = P. berghei luciferase and blood parasitemia model of causal prophylaxis; type: in vivo
Experimental: Efficacy studies in the P. berghei mouse model of causal prophylaxis were conducted at the Walter Reed Army Institute of Research, Experimental Therapeutics Branch as previously described ([46]).
Luciferase-expressing P. berghei ANKA sporozoites were obtained from laboratory-reared female Anopheles stephens mosquitoes as previously described ([46]). Sporozoites were recovered by the method of Li et al. ([62]) and quantitated using a hemocytometer. Sporozoites isolated from the same batch of mosquitoes were inoculated into mice on the same day to control biological variability in sporozoite preparations. Each animal was inoculated IV in the tail vein with approximately 10,000 sporozoites suspended in 0.1-ml volume on day 0.
Age-matched, 40 young adult (7-week-old) female C57BL/6 albino mice were purchased from Charles River Laboratories (Frederick, MD). On arrival, animals were acclimated for 7 days in quarantine. Mice were housed and maintained at a temperature range of 64° to 79°F, 34 to 68% relative humidity, and a 12-hour light/dark cycle. Food and water were provided ad libitum. Animals were fed a standard rodent maintenance diet. All animal use, care, and handling was conducted under an IACUC-approved animal use protocol in an Association for Assessment and Accreditation for Laboratory Animal Care International (AAALACi)–accredited facility with a Public Health Services Animal Welfare Assurance and in compliance with the Animal Welfare Act and other federal statutes and regulations relating to laboratory animals.
TQ was dissolved at a stock concentration of 1 mg/ml in 25% hydroxy-β-cyclodextrin acidified to pH 5 with acetic acid and diluted in DPBS for final dosing solutions. Polymers for parenteral administration were prepared in DPBS at the final dosing concentrations. All drug concentrations were calculated per the free base molecular weights of TQ. TQ parent compounds were administered intragastrically via an intragastric feeder tube. Vehicle groups (0.1 ml of DPBS) and polymer groups were administered SC in the right flank. Free TQ, vehicle, and polymers were given as a single dose on day −1. In this model, the pSVCTQ doses studied were 5.0, 7.5, or 10 mg/kg TQ equivalent.
Whole-body IVIS imaging of bioluminescence activity from luciferase-expressing P. berghei–infected mice was performed using a PerkinElmer IVIS Spectrum. Mice were evaluated at 24, 48, and 72 hours after sporozoite inoculation to determine liver- and blood-stage malaria infection. Mice received luciferin (150 mg/kg, Gold Biotechnology, St. Louis, MO) intraperitoneally in a maximal volume of 150 μl. Three minutes after luciferin administration, the mice were anesthetized with inhaled isoflurane and positioned ventral side up in the IVIS Spectrum on a 37°C platform. The mice continued to receive isoflurane through nose cone delivery. The camera exposure times used were 1 or 5 min for the 24-, 48-, and 72-hour time points with f-stop = 1, and the large binning setting was chosen. Quantitative analysis of bioluminescence emitted from whole bodies or […] (ROI) were determined by measuring the luminescence signal intensity in photons per second using the ROI settings of the Living Image 3.0 software. The ROI, expressed in total flux of photons, was set to measure the abdominal area at the location of the liver from whole-body imaging ([62]). The data were generally found to fit a normal distribution. Means and SDs of photon measurement were calculated.
On days 5 to 31 after infection, mice were analyzed for blood-stage infections by quantitation of malaria parasites in erythrocytes by flow cytometry. Blood (3 μl) from the mouse tail was collected directly into 0.3 ml of 1% heparinized isotonic buffer (PBS saline). After addition of 1 ml of 0.04% of glutaraldehyde for fixation, the samples were incubated at 4°C for 60 min. Cells were centrifuged at 450g for 5 min. […]

[4] = Polymer biodistribution (IVIS imaging) and liver hepatocyte localization (histology); type: in vivo; details: mice
Experimental: Mice were dosed SC with rhodamine-labeled pSVCTQ at the dose of equivalent 25 mg/kg TQ, which were then euthanized at 8 hours after injection. Selected organs, including liver, kidneys, lungs, spleen, heart, and brain, were harvested and washed with PBS before imaging studies (IVIS) using fluorescent mode at (excitation/emission: 530/585 nm), Caliper Xenogen IVIS (PerkinElmer, Hopkinton, MA). The radiant efficiency emitted from the organs in each mouse was subsequently quantified using Xenogen Living Image software. Mice treated with PBS served as controls (fig. S12). Three mice were included in each group.
Rhodamine-labeled pSVCTQ was formulated in PBS and SC administered in mice at a dose of 25 mg/kg TQ equivalent. Mice receiving PBS served as controls. The liver was harvested at 8 hours after injection and immediately fixed in 10% neutral buffered formalin at 4°C for 4 hours. After washing three times in cold PBS, the liver tissue was sunk in 15% sucrose solution for 24 hours and then in 30% sucrose solution for 24 hours at 4°C. The sucrose solution was prepared in DPBS (1×, with Mg^2+ and Ca^2+). The liver tissue was then blotted with paper tissue and embedded in an optimal cutting temperature compound. The sample was frozen in prechilled isopentane in liquid nitrogen and stored at −80°C. The 5-μm-thick sections were prepared using CryoStat at −20°C. Alexa Fluor 488 phalloidin was diluted 1:50 in PBS and used to counterstain the sections for 1 hour at room temperature (RT) to visualize cell outlines. The cell nuclei were counterstained with DAPI (blue) for 5 min at RT. Sections were imaged using an epi-fluorescent microscope (Nikon Eclipse 90i and Hamamatsu C10600 Camera at 20× magnification) using GFP-B HYQ (excitation/emission: 450/550 nm) Texas red HYQ (excitation/emission: 535/580 nm) and ultraviolet illumination (excitation/emission: 350/470 nm).

[5] = female, BALB/c, mouse, in vivo, po, 10 mg/kg
[6] = 8 hours after SC 25 mg/kg TQ equivalent

COc1cc(C)c2c(Oc3cccc(C(F)(F)F)c3)c(OC)cc(NC(C)CCCN)c2n1 (stereo not shown) [TQ, tafenoquine]
AUC [1, 5]: 22400 ng·h/mL | AUC, liver [1, 5]: 1404 μg/g liver*hour | Cmax [1, 5]: 380 ng/mL | Cmax, liver [1, 5]: 17 μg/g liver | Kp [1, 5]: 62.8 | Tmax [1, 5]: 8 h | Hemolytic toxicity (decreases in hemoglobin and hematocrit) ([2]; 100-mg dose): did not produce hemotoxicity | Hemolytic toxicity (decreases in hemoglobin and hematocrit) ([2]; 300-mg dose): dose-limiting | TD50 at 7 days [3]: 5 mg/kg | Median effective dose (dose that results in 50% huRBC loss by day 7 relative to vehicle control) (G6PD-deficient huRBCs): 4.7 mg/kg | Mice survived (P. berghei; 10 mg/kg PO, single dose day −1, 31 days, n = 5): 2/5 | Blood parasitemia suppression (P. berghei; 10 mg/kg oral, single dose day −1): partial suppression of parasitemia | IVIS signal during days 1 to 3 (P. berghei; 10 mg/kg single dose day −1, pSVCTQ SC, TQ oral): completely suppressed

p(GalNAc-MA-co-VCTQ-MA) [pVCTQ]
Liver:plasma AUC ratio ([1]; 25 mg/kg, IV, mice): 120 | AUC, liver ([1]; TQ in liver, 25 mg/kg TQ equivalent, IV, mice, t = 0 to 336 hours): 2725 μg/g liver*hour | Cmax, liver ([1]; TQ in liver, 25 mg/kg, IV, mice): 48 μg/g liver

p(GalNAc-MA-co-SVCTQ-MA-co-RheMA) [rhodamine-labeled pSVCTQ]
Fluorescence in lungs, heart, spleen, and brain (IVIS) [4, 6]: little fluorescence intensity | Fluorescence in the kidneys (IVIS) [4, 6]: low level of fluorescence | Liver accumulation (IVIS fluorescence) [4, 6]: accumulate in the liver with high selectivity | Liver penetration / hepatocyte distribution (cross-sectional histology) ([4]; liver 8 hours after SC 25 mg/kg TQ equivalent): present in every hepatocyte

p(GalNAc-co-MSEMA-co-SVCTQMA) [lower GalNAc polymeric prodrug design]
PK properties compared with pSVCTQ ([1]; TQ in liver and plasma after SC 10 mg/kg dose, mice (fig. S15B)): preserved much of the PK properties

p(GMA-co-SVATQMA) [tri-antennary GalNAc polymeric prodrug]
Liver AUC drug exposure compared with the copolymer ([1]; SC 10 mg/kg dose, mice (fig. S15C)): equivalent to the copolymer
